The values that follow come from patent publication US10723706B2, “Perk inhibitors and uses thereof in treating diseases associated with aggregation-prone proteins” (Ramot at Tel-Aviv University Ltd., priority 2016, dated 2020).

Entries after “also recorded” stand apart in the source; their conditions may differ.

In one series the test system is cells. Kind of series: Intrinsic cytotoxicity on cells. It counts as cell-based.
The test system of series [1] is R6/2 transgenic mice. Kind of series: Blood glucose levels in R6/2 HD model and WT mice. It counts as in vivo, mouse. On the procedure:
Animals were treated for 4 weeks starting at 4 weeks of age with 1 mg/ml MK-28 or with vehicle (DMSO/PEG400 1:1), delivered using Alzet pumps. […] N=13 TG, 13 TG+MK28, 16 WT, 15 WT+MK28, 15 None.
The HD mouse model used was the R6/2 transgenic mice model B6CBA-R6/2 (CAG 160) Jackson Lab USA. R6/2 mice express only the exon 1 of the human Htt gene, including 150 CAG repeats driven by the human Htt promoter directly influencing the transgene expression levels and thereby the development of HD-like pathology. Out of all the existing mouse models of HD, the R6/2 mouse is one that develops symptoms the most rapidly and has the most widespread occurrence of Htt inclusions in the brain. Furthermore, these lines are the most widely used in therapeutic trials. In these animals, the initial signs of motor symptoms commence around 3 weeks of age. […] While R6/2 mice are initially hyperactive, they gradually reduce their motor activity and become hypoactive around 8 weeks of age. Their motor function and coordination progressively deteriorate, and can be detected as a reduction in the time they can stay on a rotating rod, the so-called Rotarod. […]
Alzet pumps were implanted at 4 weeks of age and MK-28 was administered at 1 mg/kg with continuous dosing for 28 days. […] Vocalization tests were also performed and survival was assessed. […]

The test system of series [2] is R6/2 transgenic mice. The series can be described thus: Rotarod test in R6/2 HD model mice. It counts as in vivo, mouse. The note with it: 1 mg/kg continuous for 28 days. How it is done:
Motor activity was assessed by the rotarod test using the San Diego Instrument, Rotor-Rod (San Diego Instruments, CA, USA) (0-25 RPM). R6/2 mice and controls were tested every week after pump transplantation. Each test consisted of 3 consecutive measurements of 5 minutes on 4 rpm, 60 minutes of rest, 3 times 0-40 rpm. The latency to fall was recorded.
For the therapeutic assessment of MK-28 delivery, Alzet pumps model 1004, with a rate of 0.11 μl/hour and 28 days compound delivery were used. Five groups of mice were studied: (1) Transgenic (TG) treated with MK-28, (2) TG without treatment (pumps with vehicle), (3) Wild-type (WT) treated with MK-28, (4) WT without treatment (pumps with vehicle), (5) WT without pumps.
Alzet pumps were implanted at 4 weeks of age and MK-28 was administered at 1 mg/kg with continuous dosing for 28 days. This concentration is in a typical clinical dose range. […] Vocalization tests were also performed and survival was assessed. […]
Rotarod analysis was performed by assessing the maximum performance of each animal during three consecutive trials at different time points. The analysis evaluated the motor behavior of animals starting one week after the pump implantation (equivalent to the mice fifth week of life) and ending by seven weeks after first MK-28 delivery.
Background: Falling from the rotarod earlier than controls is read as motor impairment.

Series [3] is described as follows: Pharmacokinetics and blood brain barrier penetration, LC/MS/MS. The class given is in vivo, mouse. Particulars: WT mice, 10 mg/kg IP. On the procedure: FIG. 5 Analysis of Pharmacokinetics (PK) and blood brain barrier (BBB) penetration was done in WT mice using a method based on LC/MS/MS.
Pharmacokinetics (PK) and blood brain barrier (BBB) penetration were analyzed in WT mice.

In the case of `CN(/N=C\c1ccc(O)c(O)c1)c1nc(-c2ccccc2)cc(-c2ccccc2)n1` [Compound 3, 2-{N-methyl-N′-(3,4-dihydroxybenzylidene)hydrazinyl}-4,6-diphenylpyrimidine], the “intrinsic cytotoxicity on cells” value with cells is listed as “neither MPGL1 nor MK-28 exhibited intrinsic cytotoxicity”. The “blood glucose levels in TG mice” value in the series with R6/2 transgenic mice [1] (R6/2 TG mice, 4 weeks treatment by Alzet pump from 4 weeks of age) was “reduced”. Also, the “blood glucose levels in WT mice” value with R6/2 transgenic mice [1] (WT mice, 4 weeks treatment by Alzet pump, listed as MK-28) is reported as “no effect; also recorded: did not affect glucose levels”. The “Rotarod motor performance of TG mice versus untreated TG” value in the series on R6/2 transgenic mice [2] (R6/2 TG mice, p<0.05, listed as MK-28, 1 mg/kg) was “significant improvement in general motor performance; also recorded: significant improvement in motor function”. In addition, in the series on R6/2 transgenic mice [2] (WT mice), the “Rotarod motor performance of WT mice” value is reported as “no compromised motor performance”. Also, in series [3] (brain), the “BBB penetration, peak brain concentration” value worked out at 57 ng/mL; the T1/2 in brain amounted to 80 min; the “time of peak brain concentration” value worked out at 40 min. For the same molecule, in series [3] (plasma), the T1/2 in plasma worked out at 30 min, the peak plasma concentration amounted to 105 ng/mL and the “time of peak plasma concentration” value turned out to be 40 min. Further, the Kp at 40 minutes in series [3] (mouse, brain, read-out: BBB penetration peak as percent of the concentration in plasma) was more than 0.5.
